Source: patent US11440870B2, “Cannabidiolic acid esters compositions and uses thereof” (Yissum Research Development Company of the Hebrew …, priority 2017, dated 2022)

Columns and labels:
[1] = tested on: LiCl-induced conditioned gaping (acute nausea) in rats; conditions: i.p.; literature (Bolognini et al., 2013; Rock et al.); cited from earlier work
[2] = tested on: anxiety-like responding in rats; conditions: i.p.; literature (Rock et al., 2017); cited from earlier work
[3] = tested on: anxiety-like responding in rats; experiment: Light-dark box emergence test after foot shock stress (anxiety-like responding); assay type: in vivo, male Sprague-Dawley rats; conditions: for Time spent in the light box after foot shock (FS) stress vs No FS: 0.01 μg·kg−1 i.p., 45 min before 5 min test, 24 h after FS
Text: Animal procedures complied with the Canadian Council on Animal Care, and the protocols were approved by the Institutional Animal Care Committee at University of Guelph. Animal studies are reported in compliance with the ARRIVE guidelines (Kilkenny et al., 2010; McGrath and Lilley, 2015). A total of 200 näive male Sprague-Dawley rats, obtained from Charles River Laboratories (St Constant, Quebec), were used for all in vivo studies. Rats were individually housed (for acute nausea studies) or pair-housed [for anticipatory nausea and light-dark emergence studies] in home cages made of opaque white plastic (48×26×20 cm), containing bed-o-cob bedding from Harlan Laboratories, Inc. (Mississauga, Ontario), a brown paper towel, and Crinkl'Nest™ from The Andersons, Inc. (Maumee, Ohio). Additionally, in the home cage, rats were provided with a soft white paper container that was 14 cm long and 12 cm in diameter. All rats were subjected to an ambient temperature of 21° C. and a 12/12 h light-dark schedule (lights off at 07:00 h) and maintained on food (Highland Rat Chow [8640]) and water ad libitum. For the acute and anticipatory nausea studies, their body weights ranged from 263 to 329 g on the day of conditioning. For the light-dark emergence studies, their body weights ranged from 320 to 387 g on the day of test.
For the in vivo experiment 3, anxiolytic-like responding was evaluated using the light-dark emergence apparatus, which consisted of an opaque white plastic rectangular box that was divided into two compartments: a small (25 cm wide×20.5 cm long×20.5 cm high) enclosed dark box built of opaque black plastic with a door (8 cm wide×10 cm high) leading to a larger (39.5 cm long×25 cm wide) open lit box. The open lit box was illuminated by one lamp (with a 60 W bulb, 180 lux in the light chamber) positioned 115 cm above the center of the lit box. A video camera was mounted over the top of the light-dark box, and the video tapes were analyzed by the Ethovision software (Noldus Information Technology, Leesburg, Va., USA) for the duration of time spent in the light box for the 5 min test. For the foot shock (FS) session, the rats were placed in sound attenuating MED Associates fear conditioning chambers (St. Albans, Vt., USA). The 6 min FS session consisted of six 0.8 mA foot shocks delivered 1 min apart. Each 0.5 s shock was preceded by a 30 s auditory tone (90 Db, 5000 Hz) as described by Bluett et al. (2014).
The effect of CBDA and HU-580 on anxiety-like responding was evaluated using the light-dark box emergence test following either foot shock stress or no foot shock (No FS) stress. […]

[4] = Stability on storage at 4° C.; conditions: stored at 4° C. (21 days for the comparison)

Structure (SMILES)	Dose as low as which anti-nausea effects are induced (vomiting in Suncus murinus, conditioned gaping in rats) [1]	Doses as low as which anxiolytic-like effects are produced under conditions of high stress [2]	Time spent in the light box after foot shock (FS) stress vs No FS [3]	Time spent in the light box after foot shock (FS) stress vs No FS, with 5-HT1A antagonist pretreatment ([3]; WAY100635 15 min before 0.01 μg·kg−1 HU-580 i.p., P=0.05)	Stability when stored [4]
C=C(C)[C@@H]1CCC(C)=C[C@H]1c1c(O)cc(CCCCC)c(C(=O)O)c1O [CBDA, Cannabidiolic acid]	1 µg/kg	0.1 µg/kg	spent less time in the light box following FS stress than following No FS stress	–	–
C=C(C)[C@@H]1CCC(C)=C[C@H]1c1c(O)cc(CCCCC)c(C(=O)OC)c1O [HU-580, Cannabidiolic Acid Methyl Ester]	–	–	reversed the effect of FS	spent less time in the light box following FS stress than following No FS stress	more stable than CBDA
